The values that follow are results of earlier work, collected in patent US6388175B1, “Control of leaf scald disease” (priority 1995, dated 2002).

“Also recorded” adds a separate entry of the source.

For the series the following is noted: 100° C. for 30 min.

Consider albicidin, for which the Activity after heating entry is reported as “unaffected; also recorded: little activity is lost”.
